Literature values as cited in US20220079967A1, “COMPOSITION FOR IMPROVING VASCULAR ENDOTHELIAL FUNCTION” (SAN-EI GEN F.F.I., INC., priority 2019, published 2022).

Test system: endothelial function and blood pressure
Details: administered to human, also with increased dosage (Bondonno et al. 2016)

For O=c1c(O[C@@H]2O[C@H](CO)[C@@H](O)[C@H](O)[C@H]2O)c(-c2ccc(O)c(O)c2)oc2cc(O)cc(O)c12 [isoquercitrin], the “effect on FMD value” is given as “does not affect” and the “effect on blood pressure” value is given as “does not affect”.
